From ChEMBL document CHEMBL4715849, “Recent Progress in the Discovery of Antifungal Agents Targeting the Cell Wall” (J Med Chem, 2020) come the findings set out here.

≈ marks a conversion by molar mass, not a printed value.

In assay [1] the test system is Aspergillus fumigatus. Nature of the assay: Antifungal activity against Aspergillus fumigatus(Tsukuba). The format is functional.
The nature of assay [2]: Inhibition of Candida albicans GWT1 expressed in Saccharomyces cerevisiae using UDP-GlcNAc as substrate incubated for 20 mins followed by palmitoyl-CoA addition and measured after 2 hrs by TLC-based autography.
Assay [3] concerns Candida albicans. Put plainly: Antifungal activity against Candida albicans CAF2-1. Format: functional.
Assay [4] in a line: Inhibition of Aspergillus fumigatus GWT1 expressed in Saccharomyces cerevisiae using UDP-GlcNAc as substrate incubated for 20 mins followed by palmitoyl-CoA addition and measured after 2 hrs by TLC-based autography.
The next assay concerns Candida tropicalis. Nature of the assay: Antifungal activity against Candida tropicalis incubated for 24 hrs by serial 2-fold dilution method. The format is functional.
For assay [5], the system named is Candida albicans. Nature of the assay: Antifungal activity against Candida albicans incubated for 24 hrs by serial 2-fold dilution method. The format is functional.
The test system of another assay is Nakaseomyces glabratus. Nature of the assay: Antifungal activity against Candida glabrata incubated for 24 hrs by serial 2-fold dilution method. The format is functional.
Assay [6] relates to Candida albicans. Put plainly: Antifungal activity against Candida albicans ATCC 44373 incubated for 48 to 72 hrs by broth microdilution method. The format is functional. To be noted: time 48-72 hrs.
Assay [7] concerns Candida albicans. Nature of the assay: Antifungal activity against Candida albicans ATCC 10231 incubated for 48 to 72 hrs by broth microdilution method. Format: functional. To be noted: time 48-72 hrs.
The target in another assay is Chitin synthase 2 (Candida albicans, UniProt P30572). Nature of the assay: Inhibition of Chitin synthase 2 in Candida albicans (chs3del::hisG/chs3del::hisG) microsomes using UDP-[U14C]-GlcNac as substrate. Details: species or system Microsome.
Sequence of Chitin synthase 2 (P30572 whole entry): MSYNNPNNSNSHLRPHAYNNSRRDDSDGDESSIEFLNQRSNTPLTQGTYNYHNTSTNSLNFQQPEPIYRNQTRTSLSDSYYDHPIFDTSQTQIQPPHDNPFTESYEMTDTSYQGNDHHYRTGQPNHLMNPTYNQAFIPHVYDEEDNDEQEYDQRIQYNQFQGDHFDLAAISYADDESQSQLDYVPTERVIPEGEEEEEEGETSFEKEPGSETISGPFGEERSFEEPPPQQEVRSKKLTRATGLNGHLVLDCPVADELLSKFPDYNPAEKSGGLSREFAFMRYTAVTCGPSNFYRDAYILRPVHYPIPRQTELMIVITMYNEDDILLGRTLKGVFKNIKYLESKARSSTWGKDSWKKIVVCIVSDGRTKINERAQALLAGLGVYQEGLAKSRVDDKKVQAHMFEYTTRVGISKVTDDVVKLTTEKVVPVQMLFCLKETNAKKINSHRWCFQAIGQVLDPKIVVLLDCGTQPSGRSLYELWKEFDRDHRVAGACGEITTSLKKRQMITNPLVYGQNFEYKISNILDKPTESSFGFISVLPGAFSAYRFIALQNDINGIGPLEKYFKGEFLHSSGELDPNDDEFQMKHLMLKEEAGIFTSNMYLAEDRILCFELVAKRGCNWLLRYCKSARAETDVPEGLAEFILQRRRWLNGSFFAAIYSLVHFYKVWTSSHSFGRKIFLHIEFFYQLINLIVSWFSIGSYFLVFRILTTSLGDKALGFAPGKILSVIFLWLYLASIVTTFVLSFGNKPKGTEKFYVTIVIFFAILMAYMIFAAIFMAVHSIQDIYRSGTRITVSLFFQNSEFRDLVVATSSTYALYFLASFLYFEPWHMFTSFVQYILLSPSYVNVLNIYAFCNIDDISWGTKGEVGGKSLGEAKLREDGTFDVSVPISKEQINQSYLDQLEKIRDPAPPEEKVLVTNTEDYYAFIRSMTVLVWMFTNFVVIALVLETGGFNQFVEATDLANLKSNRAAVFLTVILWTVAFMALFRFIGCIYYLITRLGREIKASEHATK
Assay [8] addresses T1, Chitin synthase 1 (Candida albicans, UniProt P23316). Put plainly: Inhibition of Chitin synthase 1 in Candida albicans (chs3del::hisG/chs3del::hisG) microsomes using UDP-[U14C]-GlcNac as substrate. The arrangement: species or system Microsome.
Assay [9] deals with Meyerozyma guilliermondii. Put plainly: Antifungal activity against Candida guilliermondii incubated for 48 to 72 hrs by broth microdilution method. Format: functional. To be noted: time 48-72 hrs.
For assay [10], the system named is Candida albicans. Put plainly: Antifungal activity against Candida albicans ATCC 38248 incubated for 48 to 72 hrs by broth microdilution method. Format: functional. The note with it: time 48-72 hrs.
Assay [11] has as its system Candida albicans. Nature of the assay: Antifungal activity against Candida albicans ATCC 200955 incubated for 48 to 72 hrs by broth microdilution method. The format is functional. The note with it: time 48-72 hrs.
In another assay the test system is Pichia kudriavzevii. Put plainly: Antifungal activity against Candida krusei incubated for 48 to 72 hrs by broth microdilution method. Format: functional. To be noted: time 48-72 hrs.
Assay [12] has as its target T1, Chitin synthase 1. Nature of the assay: Inhibition of Candida albicans chitin synthase 1 expressed in Saccharomyces cerevisiae RRA400-1U cells using [3H]UDP-GlcNAc as substrate by scintillation counting method.
Assay [13] has as its system Candida albicans. Put plainly: Antifungal activity against Candida albicans CAI4 incubated for 24 hrs. The format is functional.
Assay [14] concerns Candida albicans. Nature of the assay: Antifungal activity against Candida albicans CY1124 incubated for 1 day by NCCLS M27-A2 microdilution method. The format is functional. To be noted: CY1124, 24 h.
Assay [15] concerns Aspergillus fumigatus. Put plainly: Antifungal activity against Aspergillus fumigatus CF1083 incubated for 1 day by NCCLS M27-A2 microdilution method. The format is functional. The note with it: CF1083, 24 h.
Assay [16] deals with Aspergillus fumigatus. Put plainly: Antifungal activity against Aspergillus fumigatus CF924390 incubated for 1 day by NCCLS M27-A2 microdilution method. The format is functional. The note with it: CF924390, 24 h.
Assay [17] can be described thus: Inhibition of Candida albicans IFO1060 1,3-beta-D-glucan synthase using UDP-[6-3H]-glucose as substrate incubated for 30 mins by radioactivity.
For assay [18], the system named is Aspergillus fumigatus. Nature of the assay: Antifungal activity against Aspergillus fumigatus CF1003 incubated for 1 day by NCCLS M27-A2 microdilution method. The note with it: CF1003, 24 h. Format: functional.
The test system of assay [19] is Candida albicans. Nature of the assay: Antifungal activity against Candida albicans ATCC2001 incubated for 2 day by NCCLS M27-A2 microdilution method. Format: functional. To be noted: ATCC2001, 48 h.
Assay [20] concerns Candida albicans. Nature of the assay: Antifungal activity against Candida albicans ATCC 48130 incubated for 1 day by NCCLS M27-A2 microdilution method. The note with it: ATCC 48130, 24 h. Format: functional.
Assay [21] deals with Candida albicans. Nature of the assay: Antifungal activity against Candida albicans CY3003 incubated for 1 day by NCCLS M27-A2 microdilution method. Format: functional. The note with it: CY3003, 24 h.
For assay [22], the system named is Candida albicans. Nature of the assay: Antifungal activity against Candida albicans CY1123 incubated for 1 day by NCCLS M27-A2 microdilution method. The format is functional. The note with it: CY1123, 24 h.
Assay [23] concerns Candida albicans. Put plainly: Antifungal activity against Candida albicans IFO0005 incubated for 3 day by NCCLS M27-A2 microdilution method. Format: functional. The note with it: IFO0005, 72 h.
Assay [24] concerns Aspergillus fumigatus. Put plainly: Antifungal activity against Aspergillus fumigatus CF1003 by NCCLS-based M27-A broth microdilution method. The format is functional.
Assay [25] relates to Candida albicans. Put plainly: Antifungal activity against Candida albicans CY1002 by NCCLS-based M27-A broth microdilution method. The format is functional.
Assay [26] is described as follows: Inhibition of Saccharomyces cerevisiae CGMCC 2.145 CHS using UDP-GlcNAc as substrate incubated for 60 min by WGA-HRP tracer based method.
Assay [27] has as its system Mucor mucedo. Nature of the assay: Antifungal activity against Mucor mucedo IF06750 by serial broth dilution method. Format: functional.
For assay [28], the system named is Mucor mucedo. Nature of the assay: Antifungal activity against Mucor mucedo IF05776 by serial broth dilution method. Format: functional.
Assay [29] in a line: Antifungal activity against Mucor piriformis IF09416 by serial broth dilution method. The format is functional.
A further assay deals with Mucor racemosus. Put plainly: Antifungal activity against Mucor racemosus IF09255 by serial broth dilution method. Format: functional.
The next assay concerns Mucor hiemalis. Nature of the assay: Antifungal activity against Mucor hiemalis IFO9400 by serial broth dilution method. Format: functional.
The test system of another assay is Mucor javanicus. Put plainly: Antifungal activity against Mucor javanicus IFO4569 by serial broth dilution method. The format is functional.
A short description of assay [30]: Inhibition of Mucor flavus IFO9560 chitin synthase incubated for 6 to 20 hrs by Lineweaver-Burk analysis.
The subject of assay [31] is Mucor mucedo. Nature of the assay: Antifungal activity against Mucor mucedo IF07684 by serial broth dilution method. Format: functional.
Assay [32] in a line: Antifungal activity against Mucor flavus IFO9560 by serial broth dilution method. The format is functional.

T1 sequence (P23316 whole entry): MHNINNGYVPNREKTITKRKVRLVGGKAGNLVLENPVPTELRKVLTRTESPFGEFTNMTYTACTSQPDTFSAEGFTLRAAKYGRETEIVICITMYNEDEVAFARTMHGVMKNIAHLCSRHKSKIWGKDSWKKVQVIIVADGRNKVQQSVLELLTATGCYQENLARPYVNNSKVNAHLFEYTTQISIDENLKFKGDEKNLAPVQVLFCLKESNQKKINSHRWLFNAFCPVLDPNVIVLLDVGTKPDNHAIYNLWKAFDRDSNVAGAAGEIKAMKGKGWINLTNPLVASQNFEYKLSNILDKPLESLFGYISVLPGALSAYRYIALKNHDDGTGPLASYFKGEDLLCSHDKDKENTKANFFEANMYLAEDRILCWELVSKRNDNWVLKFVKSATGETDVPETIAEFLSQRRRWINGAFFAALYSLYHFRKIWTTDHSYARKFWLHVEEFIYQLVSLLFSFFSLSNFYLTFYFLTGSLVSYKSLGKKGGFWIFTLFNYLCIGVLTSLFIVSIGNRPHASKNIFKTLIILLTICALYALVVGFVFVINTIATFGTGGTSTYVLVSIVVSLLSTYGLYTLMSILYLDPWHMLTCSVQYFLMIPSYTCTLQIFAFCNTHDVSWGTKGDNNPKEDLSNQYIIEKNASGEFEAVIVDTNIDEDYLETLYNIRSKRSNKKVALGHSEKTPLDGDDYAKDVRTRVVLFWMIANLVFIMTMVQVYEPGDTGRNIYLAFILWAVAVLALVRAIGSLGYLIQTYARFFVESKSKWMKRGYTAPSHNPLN

On to `Nc1ncccc1-c1cc(Cc2ccc(COc3ccccn3)cc2)no1` [MANOGEPIX], for which the minimal inhibitory concentration (MIC) worked out at 0.2 µg/mL (≈ 0.558 µM) in the assay with Aspergillus fumigatus [1] and 0.05 µg/mL (≈ 0.14 µM) with Candida albicans [3]. Also, the values for the 50% inhibitory concentration (IC50) in [2] and in assay [4] were 0.27 µM and 0.6 µM, respectively.
`COC(=O)/C=C/C(=O)NC[C@H](NC(=O)CN(CCOC(C)=O)CCOC(C)=O)C(=O)OCOC(=O)Cc1ccccc1.Cl`: the minimal inhibitory concentration (MIC) in the assay with Candida tropicalis amounted to 31.3 µg/mL; with Candida albicans [5] it was 31.3 µg/mL; with Nakaseomyces glabratus, 125 µg/mL.
As to `COc1ccc2c(Cc3ccc(C(C)(C)C)cc3)c3[n+](cc2c1OC)CCc1cc2c(cc1-3)OCO2`, the MIC with Candida albicans [6] worked out at 1.56 µg/mL; in the assay with Candida albicans [7] it was 1.56 µg/mL; in [9] it was 6.25 µg/mL; against Candida albicans [10] it was 1.56 µg/mL; in the assay on Candida albicans [11], 1.56 µg/mL; in the assay with Pichia kudriavzevii, 1.56 µg/mL. The half-inhibitory concentration (IC50) at Chitin synthase 2 and on Chitin synthase 1 [8] was 22 µM throughout.
On Chitin synthase 1 [12], `CC(C)(C)C#CC=CCNc1cccc2[nH]c(=O)ccc12` registered an inhibition constant (Ki) of 0.63 µM. In addition, the MIC50 in the assay with Candida albicans [13] was found to be 3.3 µM (≈ 0.925 µg/mL).
Turning to `O=C(Nc1c(F)cccc1F)OCCCN1CCN(c2nc3ccccc3s2)CC1`, the MIC was determined as 0.26 µg/mL (≈ 0.601 µM) against Candida albicans [14]; 0.15 µg/mL (≈ 0.347 µM) against Aspergillus fumigatus [15]; 0.15 µg/mL (≈ 0.347 µM) in the assay with Aspergillus fumigatus [16]; 0.15 µg/mL (≈ 0.347 µM) against Aspergillus fumigatus [18]; 0.17 µg/mL (≈ 0.393 µM) in the assay with Candida albicans [19]; 0.26 µg/mL (≈ 0.601 µM) in the assay with Candida albicans [20]. Moreover, the MIC is 0.26 µg/mL (≈ 0.601 µM) against Candida albicans [21], 0.26 µg/mL (≈ 0.601 µM) in the assay with Candida albicans [22] and 0.17 µg/mL (≈ 0.393 µM) in the assay on Candida albicans [23]. In addition, in [17], the IC50 was 0.16 µM.
On to `C[C@@H]([C@H](N)C(=O)N[C@H](C(=O)O)[C@H]1O[C@@H](n2ccc(=O)[nH]c2=O)[C@H](O)[C@@H]1O)[C@H](O)c1ccc(O)cn1` [NIKKOMYCIN], for which the MIC50 against Aspergillus fumigatus [24] came to 11 µg/mL (≈ 22.2 µM); with Candida albicans [25] it was 12 µg/mL (≈ 24.2 µM).
In turn, `COc1ccc(N2CCN(C(=O)[C@H](O)[C@@H](O)C(=O)Nc3c(O)c4cc(O)ccc4oc3=O)CC2)cc1` showed a half-inhibitory concentration (IC50) in [26] of 100 µM.
In the case of `C[C@@H]1C[C@H]2O[C@@H]2/C=C\C=C\C(=O)Cc2c(Cl)c(O)cc(O)c2C(=O)O1` [RADICICOL], the MIC (in the assay with Mucor mucedo [27]; in the assay on Mucor mucedo [28]; in assay [29]; against Mucor racemosus; in the assay on Mucor hiemalis; against Mucor javanicus) was 0.39 µg/mL (≈ 1.07 µM) throughout. Besides, the MIC (in the assay on Mucor mucedo [31]; in [32]) was 0.39 µg/mL (≈ 1.07 µM) throughout. This compound also gave a Ki in assay [30] of 87 µM.
